According to PubChem BioAssay (NCI):
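Assay format: 96-well plates, 48-hour exposure. TGI denotes the concentration required for complete inhibition of growth.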

How the values were obtained:
Assay in all cases: DTP human tumour cell line panel, 48 h
COLO 205 colon = system: COLO 205 colon
EKVX NSCLC = system: EKVX NSCLC
HCT-15 colon = system: HCT-15 colon
HL-60(TB) leukemia = system: HL-60(TB) leukemia
KM12 colon = system: KM12 colon
MCF7 breast = system: MCF7 breast
OVCAR-4 ovarian = system: OVCAR-4 ovarian
PC-3 prostate = system: PC-3 prostate
SF-539 CNS = system: SF-539 CNS
SNB-19 CNS = system: SNB-19 CNS
UO-31 renal = system: UO-31 renal

| Structure (SMILES) | TGI (COLO 205 colon) [µM] | TGI (EKVX NSCLC) [µM] | TGI (HCT-15 colon) [µM] | TGI (HL-60(TB) leukemia) [µM] | TGI (KM12 colon) [µM] | TGI (MCF7 breast) [µM] | TGI (OVCAR-4 ovarian) [µM] | TGI (PC-3 prostate) [µM] | TGI (SF-539 CNS) [µM] | TGI (SNB-19 CNS) [µM] | TGI (UO-31 renal) [µM] |
| --- | --- | --- | --- | --- | --- | --- | --- | --- | --- | --- | --- |
| CCOC(=O)CNC(=O)C(CCC(=O)N(C)O)NC(=O)CCC(N)C(=O)O (stereo not drawn) | > 100 | > 100 | > 100 | > 100 | > 100 | > 100 | > 100 | > 100 | > 100 | > 100 | > 100 |
| COc1c2c(c3c(c1OC)c(=O)c1ccccc1n3C)OCO2 | > 100 | > 100 | > 100 | > 100 | > 100 | > 100 | > 100 | > 100 | > 100 | > 100 | > 100 |
| CCn1c(SCC(=O)N/N=C2\SCC(=O)N2c2ccc(C)cc2)nc2ccccc2c1=O | > 100 | 46.2 | > 100 | > 100 | 47.3 | 45.9 | 48.2 | 54.2 | 33.5 | 43.6 | 30.3 |
| COc1ccc(C2SCC(=O)N2c2ccc(-n3c(-c4ccccc4)nc4ccccc4c3=O)cc2)cc1 (stereo not drawn) | > 100 | > 100 | > 100 | > 100 | > 100 | > 100 | > 100 | > 100 | > 100 | > 100 | > 100 |
| COC(=O)C1=C(C)NC(=O)N2[C@@H](CCOCc3ccccc3)CC[C@@H]12 | > 50 | > 50 | > 50 | > 50 | > 50 | > 50 | > 50 | > 50 | > 50 | > 50 | > 50 |
| C=C1C(C(=O)OC)[C@H]1C(=O)OC (stereo partly drawn) | > 100 | > 100 | > 100 | > 100 | > 100 | > 100 | > 100 | > 100 | > 100 | > 100 | > 100 |
| COC(=O)Nc1nc2ccc(NS(=O)(=O)c3cccs3)cc2[nH]1 | > 100 | 73.7 | > 100 | 55.5 | 89.5 | 70.4 | > 100 | > 100 | > 100 | > 100 | > 100 |
| COc1ccc(C2CC(c3c(O)ccc4ccccc34)=NN2)cc1OC (stereo not drawn) | 46.5 | 22.1 | 18.6 | 63.5 | 11.4 | 34.5 | 20.8 | > 100 | 18.4 | 6.34 | 5.7 |
| CC(C)C1CSC2N1C(=O)C2(OCc1ccccc1)C1CC1 (stereo not drawn) | > 100 | > 100 | > 100 | > 100 | > 100 | > 100 | > 100 | > 100 | > 100 | > 100 | > 100 |
| CC(=O)Nc1nc(C)c(S(=O)(=O)NC(=O)NC2NC(=O)NC2=O)s1 (stereo not drawn) | > 100 | > 100 | > 100 | > 100 | > 100 | > 100 | > 100 | > 100 | > 100 | > 100 | > 100 |
| Cc1ccc2nc3ccccc3c(C3C4C(=O)N(c5ccc(F)cc5)C(=O)C4ON3C(C(N)=O)c3ccccc3)c2c1 (stereo not drawn) | 35.7 | > 100 | > 100 | > 100 | > 100 | 80.8 | > 100 | > 100 | 72.1 | > 100 | > 100 |
| CCCCSC1=N/C(=C\c2ccccc2O)C(=O)N1 | > 100 | > 100 | > 100 | > 100 | > 100 | > 100 | > 100 | 92.6 | > 100 | > 100 | > 100 |
| CN(O)C(=O)CCC(NC(=O)CCC(N)C(=O)O)C(=O)NCC(=O)O (stereo not drawn) | > 100 | > 100 | > 100 | > 100 | > 100 | > 100 | > 100 | > 100 | > 100 | > 100 | > 100 |
| Cn1c(-c2ccco2)ccc1-c1ccc(C=O)o1 | > 100 | > 100 | > 100 | 52.2 | > 100 | > 100 | > 100 | > 100 | 48.8 | > 100 | > 100 |
| COc1ccc(CCN2CCN(CCCc3ccccc3)CC2)cc1 | 54.3 | > 100 | > 100 | > 100 | > 100 | > 100 | > 100 | > 100 | > 100 | > 100 | > 100 |
| COc1cc(C2C=C(c3ccccc3)Oc3cc4c(cc32)OCO4)cc(OC)c1OC (stereo not drawn) | > 17.1 | > 100 | > 100 | > 34.3 | > 30.6 | > 100 | > 100 | > 100 | 3.63 | > 100 | > 100 |
| CCOC(=O)C(NC(=O)c1cccc(Cl)c1)(Nc1ccc(S(=O)(=O)Nc2cc(C)on2)cc1)C(F)(F)F (stereo not drawn) | > 100 | > 100 | > 100 | > 100 | > 100 | > 100 | > 100 | > 100 | > 100 | > 100 | > 100 |
| NC1=Nc2ccccc2Sc2nncn21 | > 100 | > 100 | > 100 | > 100 | > 100 | > 100 | > 100 | > 100 | > 100 | > 100 | > 100 |
